{"source": "patent US10201510B2", "about": "“Compositions and methods for treatment of neurological symptoms associated with alcohol-withdrawal and for convulsive seizure” (Oregon Health & Science University, priority 2005, dated 2019)", "key": {"microsomal FolDH": {"system": "microsomal FolDH", "assay": "Recognition by microsomal FolDH", "format": "in vitro ADME"}, "ADH": {"system": "ADH", "assay": "Metabolism / substrate recognition by ADH", "format": "in vitro ADME"}, "[1]": {"target": "T1, neuronal voltage-gated, L-type (Cav1.3) α1D subunit Ca^2+ channel (Rattus norvegicus, UniProt P27732)", "T1 construct": "KCl-induced intracellular Ca^2+ signaling in non-NGF treated PC12 cells loaded with fura-2; endogenous in cells; host or cells: PC12 cells (non-NGF treated)", "T1 sequence (P27732 whole entry)": "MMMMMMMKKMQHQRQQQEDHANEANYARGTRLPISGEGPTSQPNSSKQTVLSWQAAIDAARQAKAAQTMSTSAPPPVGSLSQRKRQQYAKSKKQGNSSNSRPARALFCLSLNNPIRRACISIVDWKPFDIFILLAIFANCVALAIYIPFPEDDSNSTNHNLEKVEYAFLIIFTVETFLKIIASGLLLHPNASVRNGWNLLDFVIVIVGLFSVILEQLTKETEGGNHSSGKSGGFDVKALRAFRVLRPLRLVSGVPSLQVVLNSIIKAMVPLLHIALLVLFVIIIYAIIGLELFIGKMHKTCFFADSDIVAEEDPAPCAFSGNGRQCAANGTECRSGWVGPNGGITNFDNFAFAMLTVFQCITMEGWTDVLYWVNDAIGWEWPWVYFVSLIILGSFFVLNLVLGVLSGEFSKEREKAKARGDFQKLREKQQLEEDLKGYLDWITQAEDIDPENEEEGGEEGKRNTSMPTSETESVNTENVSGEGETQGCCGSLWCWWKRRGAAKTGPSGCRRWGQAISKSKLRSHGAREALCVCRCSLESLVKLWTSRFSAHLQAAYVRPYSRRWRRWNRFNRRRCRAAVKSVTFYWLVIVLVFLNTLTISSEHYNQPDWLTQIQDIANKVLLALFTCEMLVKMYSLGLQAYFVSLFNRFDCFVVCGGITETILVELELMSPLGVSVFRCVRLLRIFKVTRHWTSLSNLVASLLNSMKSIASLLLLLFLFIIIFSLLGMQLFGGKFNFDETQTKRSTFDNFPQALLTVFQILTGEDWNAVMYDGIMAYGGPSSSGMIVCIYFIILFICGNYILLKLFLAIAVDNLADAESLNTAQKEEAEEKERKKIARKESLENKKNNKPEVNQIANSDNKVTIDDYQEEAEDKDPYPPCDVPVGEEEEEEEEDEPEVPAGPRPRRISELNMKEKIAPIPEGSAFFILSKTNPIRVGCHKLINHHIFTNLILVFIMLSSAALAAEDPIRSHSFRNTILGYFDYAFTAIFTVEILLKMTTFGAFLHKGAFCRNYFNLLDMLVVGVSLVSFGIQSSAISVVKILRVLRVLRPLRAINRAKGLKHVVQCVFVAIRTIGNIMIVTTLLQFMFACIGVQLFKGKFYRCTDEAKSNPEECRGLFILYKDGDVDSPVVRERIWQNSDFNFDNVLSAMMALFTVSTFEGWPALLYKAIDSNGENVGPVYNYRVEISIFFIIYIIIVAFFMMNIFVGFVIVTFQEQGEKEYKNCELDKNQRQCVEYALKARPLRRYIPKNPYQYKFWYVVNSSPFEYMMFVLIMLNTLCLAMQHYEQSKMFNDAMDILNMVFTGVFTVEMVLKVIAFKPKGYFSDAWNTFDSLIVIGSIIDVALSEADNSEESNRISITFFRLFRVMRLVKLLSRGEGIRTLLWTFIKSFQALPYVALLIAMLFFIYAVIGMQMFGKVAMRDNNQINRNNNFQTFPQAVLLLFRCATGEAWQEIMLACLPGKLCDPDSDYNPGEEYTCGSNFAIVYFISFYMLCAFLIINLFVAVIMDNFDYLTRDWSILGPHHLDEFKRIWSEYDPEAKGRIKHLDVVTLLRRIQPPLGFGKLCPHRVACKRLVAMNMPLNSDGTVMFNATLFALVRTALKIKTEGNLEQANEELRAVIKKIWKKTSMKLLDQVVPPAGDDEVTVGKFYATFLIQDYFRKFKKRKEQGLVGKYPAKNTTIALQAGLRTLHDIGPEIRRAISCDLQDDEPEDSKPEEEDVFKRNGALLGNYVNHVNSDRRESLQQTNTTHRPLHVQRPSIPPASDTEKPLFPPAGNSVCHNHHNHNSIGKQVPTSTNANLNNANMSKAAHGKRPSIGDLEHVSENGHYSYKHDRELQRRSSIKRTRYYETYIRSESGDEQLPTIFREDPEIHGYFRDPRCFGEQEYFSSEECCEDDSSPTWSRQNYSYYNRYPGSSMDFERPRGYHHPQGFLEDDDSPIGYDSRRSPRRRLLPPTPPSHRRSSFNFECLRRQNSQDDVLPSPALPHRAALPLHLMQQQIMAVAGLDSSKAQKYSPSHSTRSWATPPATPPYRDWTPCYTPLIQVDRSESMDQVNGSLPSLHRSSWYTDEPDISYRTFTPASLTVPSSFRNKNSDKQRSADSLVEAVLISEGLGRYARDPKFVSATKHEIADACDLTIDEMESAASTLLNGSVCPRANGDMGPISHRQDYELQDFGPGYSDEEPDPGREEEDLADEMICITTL", "T1 sequence (P54290 25-944 partner limits assumed)": "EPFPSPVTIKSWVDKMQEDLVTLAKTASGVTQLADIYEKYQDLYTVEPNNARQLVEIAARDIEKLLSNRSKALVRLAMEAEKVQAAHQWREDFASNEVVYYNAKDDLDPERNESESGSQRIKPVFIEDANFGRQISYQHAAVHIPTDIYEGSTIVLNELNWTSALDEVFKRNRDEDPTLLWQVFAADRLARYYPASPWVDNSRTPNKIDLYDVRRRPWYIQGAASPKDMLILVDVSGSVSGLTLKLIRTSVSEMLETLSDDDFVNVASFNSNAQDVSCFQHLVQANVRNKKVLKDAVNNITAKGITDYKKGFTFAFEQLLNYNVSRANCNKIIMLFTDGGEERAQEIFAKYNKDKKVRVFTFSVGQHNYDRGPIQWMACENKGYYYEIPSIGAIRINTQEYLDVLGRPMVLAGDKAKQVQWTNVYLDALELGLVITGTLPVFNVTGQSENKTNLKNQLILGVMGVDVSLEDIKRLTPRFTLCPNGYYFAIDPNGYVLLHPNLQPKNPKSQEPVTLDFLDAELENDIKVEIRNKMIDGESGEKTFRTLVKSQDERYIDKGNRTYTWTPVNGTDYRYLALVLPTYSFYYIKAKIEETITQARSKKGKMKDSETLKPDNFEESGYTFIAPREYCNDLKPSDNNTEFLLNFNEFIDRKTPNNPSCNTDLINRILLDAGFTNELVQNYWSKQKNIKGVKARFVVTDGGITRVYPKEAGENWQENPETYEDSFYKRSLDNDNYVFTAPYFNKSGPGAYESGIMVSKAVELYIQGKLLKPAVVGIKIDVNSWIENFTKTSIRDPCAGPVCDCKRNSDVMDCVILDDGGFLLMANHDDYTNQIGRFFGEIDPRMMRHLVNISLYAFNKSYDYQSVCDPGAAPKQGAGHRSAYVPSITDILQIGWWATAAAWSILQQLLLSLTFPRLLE", "T1 sequence (P54290 945-1091 partner limits assumed)": "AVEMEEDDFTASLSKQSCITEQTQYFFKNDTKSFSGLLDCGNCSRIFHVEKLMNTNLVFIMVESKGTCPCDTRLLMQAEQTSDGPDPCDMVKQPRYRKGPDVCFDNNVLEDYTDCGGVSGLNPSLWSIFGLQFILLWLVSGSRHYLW", "assay": "KCl-induced Ca^2+ signaling in fura-2 loaded PC12 cells", "format": "cell-based", "conditions": "for block of KCl-induced Ca^2+ signaling: PC12 cells in culture, n=3/group, FIG. 3; for activity on neuronal L-type Ca^2+ channels compared with all-trans farnesol: non-NGF PC12 cells, fura-2, FIG. 1 / FIG. 3", "from_the_text": "According to particular aspects of the present invention, the alcohol group is essential for activity. Additionally, the activity of farnesol metabolites on neuronal voltage-gated L-type Ca^2+ channels was investigated. […] The Ca^2+ channel activity is expressed as % inhibition of KCl-induced intracellular Ca^2+ signaling in non-NGF differentiated PC12 cells loaded with fura-2 (see Materials and Methods under Example 2). The assayed molecules are: FPP—farnesyl pyrophosphate; FOH—all-trans farnesol; FCHO—all-trans farnesal; and FCOOH—all-trans farnesoic acid (prepared by Dr. McDougal).\n(§1) To identify compounds with enhanced L-type Ca^2+ channel blocker activity, several compounds were either purchased or synthesized, and then tested for their ability to inhibit: (1) KCl-induced contraction in isolated arteries; (2) KCl-induced Ca^2+ signaling in fura-2 loaded arteries; and (3) KCl-induced Ca^2+ signaling in fura-2 loaded PC12 cells, all using art-recognized methods established in the applicants' laboratories (Roullet, 1993, 1994, 1995, 1997; De Lima, 1999). Arteries express smooth muscle voltage-gated, L-type (Cav1.2 or α1C subunit) Ca^2+ channels, whereas PC12 cells constitutively express the neuronal voltage-gated, L-type (Cav1.3) α1D subunit (Ertel, 2000).\nCa^2+ channel activity is expressed as % inhibition of KCl-induced intracellular Ca^2+ signaling in non-NGF treated PC12 cells loaded with fura-2."}, "[2]": {"system": "withdrawal seizures in alcohol-dependent mice", "assay": "Predicted anti-seizure activity", "format": "in vivo, mouse", "design": "key: la = long-acting; The ++ farnesol activity was arbitrary", "conditions": "for Predicted anti-seizure activity: long-acting (la): duration flag in brackets"}, "[3]": {"target": "T2, voltage-gated L-type Ca^2+ channels (Homo sapiens, UniProt Q13936)", "T2 construct": "host or cells: arteries / vascular smooth muscle cells", "conditions": "cited from earlier work"}, "[4]": {"target": "T3, smooth muscle voltage-gated, L-type (Cav1.2 or α1C subunit) Ca^2+ channels (Mus musculus, UniProt Q01815)", "T3 construct": "KCl-induced contraction in isolated arteries; from tissue; host or cells: mouse mesenteric arteries", "assay": "KCl-induced contraction in isolated arteries", "conditions": "FIG. 5 / FIG. 6 (25 μM)", "method": "Contractions obtained after 30 min. incubation with the test compounds (left portion of graph), and after a 60-min. wash-out (right portion of graph).\nas §1"}, "DBA/2J mice": {"system": "DBA/2J mice", "format": "in vivo, mouse", "method": "experiments were conducted in two mouse strains: Withdrawal Seizure Prone replicate 1 (WSP1); and DBA/2J. WSP1 mice have been selectively bred for their high sensitivity to ethanol and enhanced expression of alcohol withdrawal seizures (Kosobud, 1995; Metten, 1996). DBA/J2 mice also have pronounced alcohol withdrawal symptoms following either chronic treatment or a single injection of a hypnotic dose of alcohol (Crabbe, 1983; Metten, 1994; Crabbe & Metten, in preparation), but are sometimes preferred to the WSP1 mice for the screening of anti-AWS drugs, because of their lower basal level of convulsions (in the absence of alcohol).\nDBA/2J mice (males and females; mean BW=23 g; n=44) were injected intra peritoneally (i.p.) with a loading dose of 1.5 g/kg ethanol (20% v/v saline solution) and with 68.1 mg/kg pyrazole hydrochloride, and then placed for 72 h into inhalation chambers (3-4 animals/cage) set at 5 mg ethanol/L air (Guppy, 1995; Crabbe, 1998). The animals were removed from the chambers after 24 and 48 h, and re-injected with pyrazole. The pyrazole injections are necessary to reduce mortality and heterogeneity in withdrawal reactions (Goldstein, 1972). A second group of animals matched for BW and sex (n=32), were housed under normal (‘air-breathing’) conditions and served as pyrazole-injected controls. All animals had free access to food and water and were housed with a 12 hr day-night light cycle. Upon withdrawal from the chambers (t=0), body weight was determined and a tail blood sample was collected for the determination of blood alcohol concentration (BEC, alcohol-treated animals only; Crabbe, 1998). […] Injections were made either 3 hours (GROUP A) or 6 hours (GROUP B) after withdrawal (approximately half of the animals were used in each group). These time points were chosen to precede peak withdrawal (GROUP A at 3 hours) as it begins to ascend above control levels to determine whether farnesol would prevent withdrawal, and to treat withdrawal at its peak (GROUP B at 6 hours). HICs were scored hourly until injections (0 to 3 h for GROUP A and 0 to 6 h for GROUP B). Immediately after HIC scoring at the hour-3 or hour-6 time points, the animals were injected with farnesol or vehicle, and scored 10, 20, 30 and 40 minutes later. The hourly scoring was then resumed at either 4 hours or 7 hours, and continued to the 10-hour time point."}, "[5]": {"target": "T4, R-type Ca^2+ channels (α1E) (Homo sapiens, UniProt Q15878)", "T4 construct": "host or cells: HEK cells", "conditions": "micromolar concentration; cited from earlier work"}, "[6]": {"target": "T5, cardiac L-type Ca^2+ channels (α1C) (Homo sapiens, UniProt Q13936)", "T5 construct": "host or cells: HEK cells", "conditions": "micromolar concentration; cited from earlier work"}, "[7]": {"system": "pentylenetetrazole-induced seizures", "conditions": "in vivo; cited from earlier work"}, "WSP1 mice": {"system": "WSP1 mice", "assay": "Acute ethanol withdrawal HIC scoring in WSP1 mice", "format": "in vivo, mouse", "method": "experiments were conducted in two mouse strains: […], 1994; Crabbe & […], in preparation), but are sometimes preferred to the WSP1 mice for the screening of anti-AWS drugs, because of their lower basal level of convulsions (in the absence of alcohol). […] Immediately after the hour-7 time point HIC score (a time of maximal withdrawal in this strain), animals were injected with either 200 mg/kg farnesol (suspension in saline containing 3 g/l bovine serum albumin) or vehicle, and scored 8, 16, 24, 32, 40, 48 and 56 minutes later using a scale from 0 to 7 (Crabbe, 1991; scoring scale shown in TABLE 1). The time course was then resumed (animals were scored at hour 8, etc.)."}, "[8]": {"target": "T6, N-type Ca^2+ channel (α1B) (Homo sapiens, UniProt Q00975)", "T6 construct": "host or cells: HEK cells", "conditions": "cited from earlier work"}, "[9]": {"target": "T1, neuronal voltage-gated, L-type (Cav1.3) α1D subunit Ca^2+ channel", "conditions": "PC12 cells; cited from earlier work"}, "[10]": {"target": "T7, P/Q-type Ca^2+ channels (α1A) (Homo sapiens, UniProt O00555)", "T7 construct": "host or cells: HEK cells", "conditions": "micromolar concentration; cited from earlier work"}}, "data": [{"smiles": "C=CC(C)(O)CCC=C(C)CCC=C(C)C", "note": "(mixture of isomers) [Nerolidol, (E)-3,7,11-trimethyldodeca-1,6,10-trien-3-ol]", "values": [{"measurement": "recognition by microsomal FolDH", "setting": "microsomal FolDH", "value": "not recognized by microsomal FolDH"}, {"measurement": "substrate for ADH", "setting": "ADH", "value": "not a substrate for ADH"}, {"measurement": "block of KCl-induced Ca^2+ signaling", "setting": "[1]", "value": "~85", "unit": "%"}, {"measurement": "Predicted anti-seizure activity: long-acting (la)", "setting": "[2]", "value": "la"}]}, {"smiles": "CC(C)=CCC/C(C)=C/CC/C(C)=C/CC/C(C)=C/CO", "note": "[geranylgeraniol, reference compound]", "values": [{"measurement": "activity on Ca^2+ channels / smooth muscle L-type channels (literature / prior studies)", "setting": "[3]", "value": "inactive"}]}, {"smiles": "CC(=O)OCC=C(C)CCC=C(C)CCC=C(C)C", "note": "[farnesyl acetate]", "values": [{"measurement": "activity on KCl-induced arterial contraction", "setting": "[4]", "value": "did not showed significant activity"}]}, {"smiles": "CC(=O)CCC=C(C)CCC=C(C)CCC=C(C)C", "note": "[farnesylacetone]", "values": [{"measurement": "activity on KCl-induced arterial contraction", "setting": "[4]", "value": "did not showed significant activity"}]}, {"smiles": "CC(C)=CCC/C(C)=C/CC/C(C)=C/CO", "note": "[All-trans farnesol, (2E,6E)-3,7,11-trimethyldodeca-2,6,10-trien-1-ol]", "values": [{"measurement": "Percent seizure reduction, GROUP A", "setting": "DBA/2J mice; 300 mg/kg i.p., injected 3 hours after withdrawal", "value": 99, "unit": "%"}, {"measurement": "Percent seizure reduction, GROUP B", "setting": "DBA/2J mice; 300 mg/kg i.p., injected 6 hours after withdrawal", "value": 78, "unit": "%"}, {"measurement": "effect on HIC scores in ‘air-breathing’ animals", "setting": "DBA/2J mice; 300 mg/kg i.p., pyrazole-injected controls", "value": "no significant effect"}, {"measurement": "effect on HICs in withdrawing animals, 50 mg/kg", "setting": "DBA/2J mice; at 50 mg/kg, worded \"Preferably\"", "value": "no effect"}, {"measurement": "effect on HICs in withdrawing animals, 300 mg/kg", "setting": "DBA/2J mice; dose of 300 mg/kg", "value": "suppresses almost completely"}, {"measurement": "death after injections", "setting": "DBA/2J mice; mouse, in vivo", "value": "No death"}, {"measurement": "duration of the farnesol effect", "setting": "DBA/2J mice; mouse, in vivo", "value": "approximately 1 hour"}, {"measurement": "toxicity of the dose inducing complete seizure suppression", "setting": "DBA/2J mice; mouse, in vivo", "value": "non toxic"}, {"measurement": "activity on R-type Ca^2+ channels", "setting": "[5]", "value": "inactive"}, {"measurement": "activity on cardiac L-type Ca^2+ channels", "setting": "[6]", "value": "inhibits"}, {"measurement": "IC50", "setting": "[3]; reversible and dose-dependent, read-out: IC50, effect on arteries", "value": "~2", "unit": "µM"}, {"measurement": "block of KCl-induced Ca^2+ signaling", "setting": "[1]", "value": 65, "unit": "%"}, {"measurement": "prevention of pentylenetetrazole-induced seizures", "setting": "[7]", "value": "not prevent"}, {"measurement": "reduction in peak ethanol withdrawal", "setting": "WSP1 mice; 200 mg/kg", "value": "~56", "unit": "%"}, {"measurement": "peak withdrawal effect (HIC score)", "setting": "WSP1 mice; 200 mg/kg after hour 7, average of 24, 32 and 40 minute scores, scale 0 to 7", "value": "2.67±0.29"}, {"measurement": "time point of maximum effect", "setting": "WSP1 mice; 200 mg/kg, after injection at hour 7", "value": 32, "unit": "min"}, {"measurement": "effect on basal HICs in naïve WSP1 mice", "setting": "WSP1 mice; 200 mg/kg, preliminary experiments", "value": "tended to reduce basal HICs"}, {"measurement": "Predicted anti-seizure activity", "setting": "[2]; based on effect on L-type Ca^2+ channels, CLogP and reversibility or ADH-FolDH recognition", "value": "++"}, {"measurement": "block of the N-type channel", "setting": "[8]; at 250 nM farnesol, typical neuronal resting membrane potential", "value": "~50", "unit": "%"}, {"measurement": "activity on N-type Ca^2+ channels", "setting": "[8]; micromolar concentration", "value": "inhibits"}, {"measurement": "activity on neuronal L-type Ca^2+ channels (literature / prior studies)", "setting": "[9]", "value": "inhibits"}, {"measurement": "activity on P/Q-type Ca^2+ channels", "setting": "[10]", "value": "inactive"}]}, {"smiles": "CC(C)=CCC/C(C)=C/CC/C(C)=C\\CO", "note": "[“Cis” farnesol, (2Z,6E)-3,7,11-trimethyldodeca-2,6,10-trien-1-ol]", "values": [{"measurement": "activity on KCl-induced arterial contraction", "setting": "[4]", "value": "significantly more active"}, {"measurement": "catalytic efficiency of ADH, lower than toward all-trans farnesol", "setting": "ADH", "value": "approximately 10 fold"}, {"measurement": "activity on neuronal L-type Ca^2+ channels compared with all-trans farnesol", "setting": "[1]", "value": "significantly more active"}]}, {"smiles": "CC(C)=CCCC(C)=CCCC(C)=CCBr", "note": "[Farnesyl bromide]", "values": [{"measurement": "activity on KCl-induced arterial contraction", "setting": "[4]", "value": "did not showed significant activity"}]}, {"smiles": "CC(C)=CCC/C(C)=C/CO", "note": "[geraniol, reference compound]", "values": [{"measurement": "activity on Ca^2+ channels / smooth muscle L-type channels (literature / prior studies)", "setting": "[3]", "value": "inactive"}]}, {"smiles": "CC(C)=CCC/C(C)=C/CC/C(C)=C/COP(=O)(O)OP(=O)(O)O", "note": "[farnesyl-PP, farnesyl pyrophosphate, reference compound]", "values": [{"measurement": "activity on neuronal L-type Ca^2+ channels compared with all-trans farnesol", "setting": "[1]", "value": "substantially inactive"}]}, {"smiles": "CC(C)=CCC/C(C)=C/CC/C(C)=C/C(=O)O", "note": "[farnesoic acid, all-trans farnesoic acid, reference compound]", "values": [{"measurement": "activity on neuronal L-type Ca^2+ channels compared with all-trans farnesol", "setting": "[1]", "value": "substantially inactive"}]}, {"smiles": "CC(C)=CCCC(C)=CCCC(C)=CC=O", "note": "[FCHO, all-trans farnesal, reference compound]", "values": [{"measurement": "activity on neuronal L-type Ca^2+ channels compared with all-trans farnesol", "setting": "[1]", "value": "significantly less activity than FOH"}]}, {"smiles": "CC(C)=CCC/C(C)=C/CC/C(=C\\CO)C(F)(F)F", "note": "[Trifluorofarnesol, (2E,6E)-,7,11-dimethyl-3-(trifluoromethyl)dodeca-2,6,10-trien-1-ol]", "values": [{"measurement": "Predicted anti-seizure activity: long-acting (la)", "setting": "[2]", "value": "la"}]}, {"smiles": "COCC=C(C)CCC=C(C)CCC=C(C)C", "note": "[farnesyl methyl ether]", "values": [{"measurement": "activity on KCl-induced arterial contraction", "setting": "[4]", "value": "did not showed significant activity"}]}]}
